Measurements taken from PubChem BioAssay (NCI).
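Exposure lasted 48 hours, with cells grown in 96-well plates and compounds tested at five concentrations. Abbreviation: GI50, concentration required for 50% inhibition of growth. TGI marks complete inhibition of growth.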

Legend:
Assay in all cases: NCI tumour cell line growth inhibition, 48 h
[1] = system: SNB-75 CNS
[2] = system: HL-60(TB) leukemia
[3] = system: SK-MEL-2 melanoma
[4] = system: SW-620 colon
[5] = system: UACC-257 melanoma
[6] = system: HCT-116 colon
[7] = system: MDA-MB-435
[8] = system: HT29 colon
[9] = system: BT-549 breast
[10] = system: HCC-2998 colon
[11] = system: T-47D breast
[12] = system: A549 NSCLC
[13] = system: NCI/ADR-RES ovarian
[14] = system: M14 melanoma
[15] = system: SK-MEL-5 melanoma
[16] = system: NCI-H522 lung
[17] = system: HCT-15 colon
[18] = system: CCRF-CEM leukemia
[19] = system: SR leukemia
[20] = system: PC-3 prostate
[21] = system: U251 CNS
[22] = system: NCI-H23 lung
[23] = system: LOX IMVI melanoma
[24] = system: OVCAR-4 ovarian
[25] = system: HOP-62 NSCLC
[26] = system: HS 578T breast
[27] = system: SNB-19 CNS
[28] = system: NCI-H460 lung
[29] = system: IGROV1 ovarian

COc1ccc(OC)c(NC(=O)c2cccc(NC3=C(Cl)C(=O)N(Cc4ccccc4)C3=O)c2)c1
GI50 [1]: > 100 µM
TGI [1]: > 100 µM
GI50 [2]: 5.82 µM
TGI [2]: > 100 µM
GI50 [3]: > 100 µM
TGI [3]: > 100 µM
GI50 [4]: > 100 µM
TGI [4]: > 100 µM
GI50 [5]: 23.5 µM
TGI [5]: > 100 µM
GI50 [6]: > 86.2 µM
TGI [6]: > 100 µM
GI50 [7]: > 64.7 µM
TGI [7]: > 100 µM
GI50 [8]: > 100 µM
TGI [8]: > 100 µM
GI50 [9]: 18.3 µM
TGI [9]: > 100 µM
GI50 [10]: 70.4 µM
TGI [10]: > 100 µM
GI50 [11]: > 100 µM
TGI [11]: > 100 µM
GI50 [12]: > 100 µM
TGI [12]: > 100 µM
GI50 [13]: > 67.8 µM
TGI [13]: > 100 µM
GI50 [14]: > 75 µM
TGI [14]: > 100 µM
GI50 [15]: 26.6 µM
TGI [15]: 87.7 µM
GI50 [16]: > 100 µM
TGI [16]: > 100 µM
GI50 [17]: > 100 µM
TGI [17]: > 100 µM
TGI [18]: > 100 µM
GI50 [19]: 7.8 µM
TGI [19]: > 87.6 µM
GI50 [20]: 38.2 µM
TGI [20]: > 100 µM
GI50 [21]: > 100 µM
TGI [21]: > 100 µM
GI50 [22]: > 70.8 µM
TGI [22]: > 100 µM
GI50 [23]: > 100 µM
TGI [23]: > 100 µM
GI50 [24]: > 100 µM
TGI [24]: > 100 µM
GI50 [25]: > 83.5 µM
TGI [25]: > 100 µM
GI50 [26]: > 100 µM
TGI [26]: > 100 µM
GI50 [27]: > 100 µM
TGI [27]: > 100 µM
GI50 [28]: > 58.1 µM
TGI [28]: > 100 µM
GI50 [29]: > 100 µM
TGI [29]: > 100 µM
